In patent US12433882B2, “Treatments for amyotrophic lateral sclerosis using dazucorilant” (Corcept Therapeutics Incorporated, priority 2022, dated 2025):

Tests used:
[1] = target: T1, GR (Rattus norvegicus, UniProt P06536); experiment: Inhibition of dexamethasone effect on TAT activity, rat hepatoma cell line; type: cell-based; conditions: read-out: Kc, inhibition of dexamethasone effects on TAT activity
T1 construct: endogenous in cells
T1 sequence (P06536 1-795): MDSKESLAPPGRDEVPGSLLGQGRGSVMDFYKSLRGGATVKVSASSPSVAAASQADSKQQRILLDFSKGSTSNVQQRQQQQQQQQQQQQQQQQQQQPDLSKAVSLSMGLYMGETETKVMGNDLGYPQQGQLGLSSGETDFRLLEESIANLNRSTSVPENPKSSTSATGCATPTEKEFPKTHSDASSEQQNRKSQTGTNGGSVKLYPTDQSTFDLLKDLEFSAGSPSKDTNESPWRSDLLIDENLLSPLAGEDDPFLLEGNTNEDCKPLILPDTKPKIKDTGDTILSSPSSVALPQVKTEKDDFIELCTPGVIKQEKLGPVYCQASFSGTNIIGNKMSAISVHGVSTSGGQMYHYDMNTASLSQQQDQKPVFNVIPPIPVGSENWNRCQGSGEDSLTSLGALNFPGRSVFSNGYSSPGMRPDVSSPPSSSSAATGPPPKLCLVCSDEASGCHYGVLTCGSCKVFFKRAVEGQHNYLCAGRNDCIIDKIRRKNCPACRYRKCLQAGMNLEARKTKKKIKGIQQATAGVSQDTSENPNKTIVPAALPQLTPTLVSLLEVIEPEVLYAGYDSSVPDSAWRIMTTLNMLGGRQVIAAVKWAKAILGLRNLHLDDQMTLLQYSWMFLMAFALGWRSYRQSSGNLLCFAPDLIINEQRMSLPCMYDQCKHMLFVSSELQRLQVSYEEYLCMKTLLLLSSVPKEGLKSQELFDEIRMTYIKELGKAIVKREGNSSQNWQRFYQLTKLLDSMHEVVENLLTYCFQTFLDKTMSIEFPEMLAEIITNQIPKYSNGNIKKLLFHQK

[2] = target: T2, progesterone receptor (PR) (Homo sapiens, UniProt P06401); experiment: Progesterone receptor binding; conditions: 10 μM
T2 sequence (P06401 1-933): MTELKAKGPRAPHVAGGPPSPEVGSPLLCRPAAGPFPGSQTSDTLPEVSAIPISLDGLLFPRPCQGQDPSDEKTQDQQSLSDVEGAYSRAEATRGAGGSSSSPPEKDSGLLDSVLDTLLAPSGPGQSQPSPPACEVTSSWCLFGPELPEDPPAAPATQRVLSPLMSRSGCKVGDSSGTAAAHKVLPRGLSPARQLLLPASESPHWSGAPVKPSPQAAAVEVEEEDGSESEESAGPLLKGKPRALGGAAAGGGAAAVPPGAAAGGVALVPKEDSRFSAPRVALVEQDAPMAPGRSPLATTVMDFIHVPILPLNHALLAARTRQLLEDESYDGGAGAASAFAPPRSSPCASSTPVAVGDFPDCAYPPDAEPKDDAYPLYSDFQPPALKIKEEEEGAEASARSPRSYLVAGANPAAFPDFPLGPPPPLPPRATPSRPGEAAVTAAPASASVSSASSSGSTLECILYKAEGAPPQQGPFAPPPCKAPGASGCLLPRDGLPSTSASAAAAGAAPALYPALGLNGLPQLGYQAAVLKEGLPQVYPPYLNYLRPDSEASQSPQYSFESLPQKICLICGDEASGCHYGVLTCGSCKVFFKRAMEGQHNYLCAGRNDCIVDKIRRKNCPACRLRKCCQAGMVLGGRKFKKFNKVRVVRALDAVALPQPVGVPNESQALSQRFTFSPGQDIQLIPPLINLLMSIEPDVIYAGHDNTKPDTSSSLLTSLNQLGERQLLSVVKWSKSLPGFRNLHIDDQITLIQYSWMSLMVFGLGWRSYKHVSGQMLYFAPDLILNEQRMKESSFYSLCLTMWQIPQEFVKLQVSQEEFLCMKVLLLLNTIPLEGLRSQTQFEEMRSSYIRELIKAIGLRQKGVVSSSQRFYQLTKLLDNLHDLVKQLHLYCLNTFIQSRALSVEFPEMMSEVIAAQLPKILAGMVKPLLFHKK

[3] = Quantitative whole-body autoradiography (QWBA) study in rats; type: in vivo
Procedure: The in vivo distribution of dazucorilant was determined in a quantitative whole-body autoradiography (QWBA) study in rats. Following a single oral administration of ^14C-dazucorilant to male and female rats, radioactivity was steadily absorbed, with maximal tissue concentrations generally occurring at around 12 hours post-dose.

[4] = Safety and tolerability in healthy volunteers; type: in vivo
Procedure: (§1) An adaptive dose, double-blind, placebo-controlled study (NCT04249323, EudraCT 2019-004258-27) was conducted in 110 healthy male and female volunteers (18-60 years old; BMI 18-30 kg/m2; weight≤102 kg; “First In Human” (FIH) study).

[5] = system: cortisol or ACTH levels; experiment: First In Human study Part 2, multiple doses: cortisol and ACTH levels; type: in vivo; conditions: part 2 of the FIH study
Procedure: as §1

[6] = first 24 hours after dosing, single oral dose, rats

With `O=C(c1ccccn1)[C@]12Cc3cnn(-c4ccc(F)cc4)c3C=C1CCN(S(=O)(=O)c1ccc(C(F)(F)F)cc1)C2` [dazucorilant, (R)-(1-(4-fluorophenyl)-6-((4-(trifluoromethyl)phenyl)sulfonyl)-4,4a, 5,6,7,8-hexahydro-1-H-pyrazolo[3,4-g]isoquinolin-4a-yl) (pyridin-2-yl)methanone] the Ki [1] was 4.2 nM, the “binding to progesterone receptor” value [2] was 0% and the “Tissue:blood ratio, brain” value [3, 6] was over 0.1. The “Tissue:blood ratio, spinal cord” value [3, 6] was over 0.1, the “time of maximal tissue concentrations of radioactivity” value ([3]; single oral administration, male and female rats, post-dose) was “around 12 hours” and the “single doses considered safe and well tolerated” value ([4]; both, human, in vivo) was “up to 1000 mg”. For the same molecule, the “serious or severe treatment-emergent adverse events” value ([4]; healthy volunteers) was “No serious or severe treatment-emergent adverse events were reported”, the “most common adverse events” value ([4]; human, in vivo) was “gastrointestinal, nervous system, musculoskeletal, and connective tissue disorders” and the safety concerns ([4]; human, in vivo) was “no significant safety concerns were identified”. The “severity of adverse events” value ([4]; human, in vivo) was “mild to moderate”, the “multiple doses considered safe” value ([4]; multiple doses QD) was “up to 300 mg QD” and the “multiple doses safe and generally well tolerated” value ([4]; multiple doses QD) was “up to 200 mg QD”. The “effects on morning or evening cortisol or ACTH levels” value [5] was “no notable effects”.
